Experimental findings from patent US4169141A, “1-Peptidyl derivatives of di-O-aminoglycosyl-1,3-diaminocyclitol antibacterial agents” (priority 1978, dated 1979) are described below.

This experiment has as its system Pseudomonas infections caused by known producers of GAT I. The experiment in a line: Mouse protection test, Pseudomonas infection. As to conditions: CF1 mice 18 to 20 g. Format: in vivo, CF1 (Carworth Farms) mice. As to the method: B. Mouse protection tests were performed in the usual manner using CF1 (Carworth Farms) mice weighing 18 to 20 g. each. […] Thus, the compounds of this invention may be used to control or eradicate susceptible bacterial strains in warm blooded animals, particularly in laboratory animals.

As to `CN[C@@H]1[C@@H](O)[C@@H](O[C@@H]2[C@@H](O)[C@H](O[C@H]3OC(CN)=CC[C@H]3N)[C@@H](N)C[C@H]2N)OC[C@]1(C)O` [sisomicin], the “protection (mouse protection test, PD50)” value was “slight protection”.
